Data set [1] deals with Human normal epidermal keratinocytes. The data set can be described thus: Amino acid deficient medium culturing test. The note with it: for growth of human epidermal keratinocytes in deficient medium: medium deficient in the named amino acid; for Relative ratio: number of cells, named amino acid reduced to 10% by weight of general MCDB 153 medium concentration, 5 days culture, non-deficient medium = 100. The format is cell-based. How it is done:
Human normal epidermal keratinocytes (Sanko Junyaku) were used as the cells. […] The cells were pre-cultured at 37° C., under an atmosphere of 5% (v/v) CO2 until they became a semi-confluent state.
The keratinocytes cultured under a growing state in a T 75 flask were used. After removing the medium by suction, 5 ml of 0.25% trypsin solution was added thereto and incubated at room temperature for 10 minutes. A 10 ml portion of the medium was added thereto, and the cells were peeled off and recovered by pipetting. The thus obtained cell suspension was centrifuged at 1,000 rpm for 5 minutes, and the supernatant was discarded. The thus obtained cell pellet was suspended in 10 ml of the medium and centrifuged at 1,000 rpm for 5 minutes, and the supernatant was discarded. The thus obtained cell pellet was again suspended in 10 ml of the medium and centrifuged at 1,000 rpm for 5 minutes, and the supernatant was discarded. The thus obtained cell pellet was suspended in 2 ml of the medium, and the number of cells was counted.
As growth factors, 50 mg/l of BPE (bovine pituitary gland extract), 5 mg/l of insulin, 0.1 mM ethanolamine, 0.1 mM phosphoethanolamine and 0.00001 mg EGF ([…]) were added thereto. The aforementioned cells were mixed with 1 ml of this medium at a density of 3×10^4 cells, inoculated onto a 24 well plate and cultured at 37° C. for 5 days under an atmosphere of 5% (v/v) CO2, and then the number of cells was counted.

The test system of data set [2] is abdominal skin of male hairless mice. The following applies: for Permeability (%) of the permeated whole amino acids: male, hairless, mouse, 24 h, 1 % by weight. How it is done: The skin sample was attached to a Keshany-Chien type diffusion cell. A 1 ml portion of each test liquid (described later) was added to the donor phase, and its upper side was sealed with Para Film. A 0.01 mol/l phosphate buffered saline (Wako Pure Chemical Industries) was added to the receptor phase, stirred and incubated at 32° C., and amounts of amino acids were determined by an HPLC method 24 hours later to calculate permeation ratio.
Using an HPLC amino acid analysis system of Shimadzu Corp. (Prominence), the determination was carried out by a post column fluorescence detection method which uses OPA (ortho-phthalaldehyde) as a reaction reagent.

The record followed here is patent US20080058400A1, “Skin external preparation” (FUJIFILM CORPORATION, priority 2006, published 2008).

The structures appear in SMILES notation.

With `NCCCC[C@H](N)C(=O)O` [Lysine], in data set [1], the “growth of human epidermal keratinocytes in deficient medium” value (shortened to “growth of human epidermal keratinocytes”) is on record as “growth was suppressed” and the Relative ratio was 9. Also, the Permeability of each amino acid in data set [2] was found to be 19.6%.

Take `NCC(=O)O` [Glycine]: in data set [1], the “growth of human epidermal keratinocytes” value is recorded as “growth was suppressed” and the Relative ratio was 9. For the same compound, the Permeability of each amino acid in data set [2] is 14.3%.

Consider `CC(C)C[C@H](N)C(=O)O` [Leucine], for which, in data set [1], the “growth of human epidermal keratinocytes” value was “growth was suppressed” and the Relative ratio came to 6. For the same compound, the Permeability of each amino acid in data set [2] was found to be 21.3%.

Regarding `N[C@@H](CO)C(=O)O` [Serine], in data set [1], the “growth of human epidermal keratinocytes” value was “growth was suppressed” and the Relative ratio was 6. In data set [2], this compound registered a Permeability of each amino acid of 15.2%.

Turning to `C[C@@H](O)[C@H](N)C(=O)O` [Threonine], in data set [1], the “growth of human epidermal keratinocytes” value is on record as “growth was suppressed” and the Relative ratio was found to be 8. In addition, in data set [2], the Permeability of each amino acid stood at 19.3%.

As to `N[C@@H](CC(=O)O)C(=O)O` [Aspartic acid], in data set [1], the “growth of human epidermal keratinocytes” value was “growth was suppressed” and the Relative ratio stood at 6. Also, the Permeability of each amino acid in data set [2] is 19.1%.

As for `OC[C@H]1O[C@H](O[C@H]2O[C@H](CO)[C@@H](O)[C@H](O)[C@H]2O)[C@H](O)[C@@H](O)[C@@H]1O` [Trehalose], the “Permeability (%) of the permeated whole amino acids” value in data set [2] is recorded as 7.2%.

For the compound `CC(C)[C@H](N)C(=O)O` [Valine], in data set [1], the “growth of human epidermal keratinocytes” value is recorded as “growth was suppressed” and the Relative ratio turned out to be 9. In addition, in data set [2], the Permeability of each amino acid amounted to 14.9%.

`N[C@@H](CCC(=O)O)C(=O)O` [Glutamic acid]: the Relative ratio in data set [1] worked out at 15.

As to `N[C@@H](Cc1ccc(O)cc1)C(=O)O` [Tyrosine], in data set [1], the “growth of human epidermal keratinocytes” value was “growth was suppressed”.

In the case of `N[C@@H](Cc1c[nH]c2ccccc12)C(=O)O` [Tryptophan], the Relative ratio in data set [1] is 15. The same compound yielded a Permeability of each amino acid in data set [2] of 3.6%.

For the compound `CSCC[C@H](N)C(=O)O` [Methionine], the Relative ratio in data set [1] stood at 12. For the same compound, in data set [2], the Permeability of each amino acid came to 7.4%.

For `C[C@H](N)C(=O)O` [Alanine], the Relative ratio in data set [1] is listed as 14. In data set [2], this compound displayed a Permeability of each amino acid of 8.4%.

As to `NC(=O)C[C@H](N)C(=O)O` [Asparagine], the Relative ratio in data set [1] amounted to 13. The compound also came in with a Permeability of each amino acid in data set [2] of 14.2%.

Take `N[C@@H](CS)C(=O)O` [Cysteine]: in data set [1], the “growth of human epidermal keratinocytes” value is recorded as “growth was suppressed” and the Relative ratio is given as 9. Moreover, the Permeability of each amino acid in data set [2] worked out at 14.7%.

On to `CC[C@H](C)[C@H](N)C(=O)O` [Isoleucine], for which, in data set [1], the “growth of human epidermal keratinocytes” value is “growth was suppressed” and the Relative ratio is on record as 7. In addition, the Permeability of each amino acid in data set [2] is 20.8%.

Turning to `N=C(N)NCCC[C@H](N)C(=O)O` [Arginine], in data set [1], the “growth of human epidermal keratinocytes” value is “growth was suppressed” and the Relative ratio is given as 8. The compound also had a Permeability of each amino acid in data set [2] of 18.1%.

`N[C@@H](Cc1ccccc1)C(=O)O` [Phenylalanine]: in data set [1], the “growth of human epidermal keratinocytes” value was “growth was suppressed” and the Relative ratio was 4. Further, the Permeability of each amino acid in data set [2] was 15.1%.

Take `O=C(O)[C@@H]1CCCN1` [Proline]: the Relative ratio in data set [1] came out at 13. This compound also displayed a Permeability of each amino acid in data set [2] of 7.9%.

For `N[C@@H](Cc1c[nH]cn1)C(=O)O` [Histidine], in data set [1], the “growth of human epidermal keratinocytes” value is “growth was suppressed” and the Relative ratio turned out to be 7. Moreover, in data set [2], the Permeability of each amino acid was 15.2%.

For the compound `NC(=O)CC[C@H](N)C(=O)O` [Glutamine], the Relative ratio in data set [1] came out at 16. The Permeability of each amino acid in data set [2] was 10.2%.

On to `OC[C@H]1OC(O)[C@H](O)[C@@H](O)[C@@H]1O` (stereo partly shown) [Glucose], for which the “Permeability (%) of the permeated whole amino acids” value in data set [2] was 9.6%.
